Like-named read-outs stand apart in the source and are kept apart here.
Experiment: Plasma pharmacokinetics of SHR9146 in mice (LC-MS/MS, non-compartmental analysis)
Type: in vivo, ICR mice
Conditions: both sexes, ICR, mouse, plasma; for bioavailability: mice
Procedure: ICR mice with body weight 16–26 g were supplied by Shanghai Lingchang Biotechnology Co., Ltd. (animal breeding license number SCXK (Shanghai) 2013-0018) and housed at Shanghai Institute of Materia Medica, Chinese Academy of Sciences [animal use license number SYXK (Shanghai) 2015-0027]. The mice used in this study were fasted overnight for 12 h but had free access to water. Food was supplied 4 h post-dose. All experiments in this study were conducted in accordance with the Guidelines for the Care and Use of Laboratory Animals of Shanghai Institute of Materia Medica, Chinese Academy of Sciences.
A total of 30 mice were randomly assigned into five groups with equal numbers, males and females. One group was intravenously administrated with 5 mg/kg SHR9146 dissolved in […] plus 95% saline (adjusted pH to 4.0) under sterile conditions. The remaining four groups were administered respectively with a single dose of 20 , 40, or 80 mg/kg or multiple doses of 20 mg/kg twice daily for 7 days, by oral gavage of SHR9146 dissolved in 0.5% CMC-Na. Blood samples were obtained from the fossa orbitalis vein at 15 and 30 min and 1.0, 2.0, 4.0, 6.0, 8.0, 10.0, and 24.0 h after oral gavage administration. An additional 5-min time point was included for iv injection, as well as the pre-drug administration time points on the fifth, sixth, and seventh days in the multiple-dose group. The blood samples were collected in EDTA K2 anticoagulant blood collection tubes and centrifuged at 1,000 rpm for 5 min at 4°C. The supernatant plasma samples were thus produced.
Briefly as follows, an aliquot of 25-μL plasma or tissue homogenate was spiked with 100 μL of internal standard solution (1 μg/mL for plasma, 0.2 μg/mL for tissue homogenate) and 300 μL of methanol added and vortex mixed for 60 s. The mixture was then centrifuged at 14,000 rpm at 4°C for 5.0 min, and the supernatant was diluted with methanol–water (4:1, v/v) in a ratio of 1:9 for the plasma or 1:1 for the tissue homogenate, and 5 μL of the resulting solution was injected for the LC-MS/MS analysis.
The pharmacokinetic parameters of SHR9146 in mouse plasma were estimated by Phoenix 1.4 software using a non-compartmental model.
The mean concentration–time curves of SHR9146 in mouse plasma after a single oral gavage dose of 20, 40, or 80 mg/kg, or a single intravenous dose of 5 mg/kg, or the 7th-day steady state after twice-daily multiple oral doses of 20 mg/kg are shown in Figure 5 (Table S6).

[1] = oral, 40 mg/kg, 40 mg/kg i.g. single, read-out: plasma drug concentration, mean (n=6)
[2] = oral, 40 mg/kg, 40 mg/kg i.g. single, read-out: plasma drug concentration, individual mice #1-#6
[3] = oral, 80 mg/kg, 80 mg/kg i.g. single, read-out: plasma drug concentration, individual mice #1-#6
[4] = oral, 80 mg/kg, 80 mg/kg i.g. single, read-out: plasma drug concentration, mean (n=6)
[5] = po, 20 mg/kg, 20 mg/kg i.g. bid, 7 days (7th-day steady state), all mice (Totol, 3 male + 3 female)

**Q.** With `OCCn1cc(-c2ccc(N3CCC([C@H]4c5c(F)cccc5-c5cncn54)CC3)cc2)cn1` [SHR9146] as the compound, how does the concentration at 1 h [1] read?
**A.** 9980 ng/mL

**Q.** And the concentration at 2 h [1]?
**A.** 4920 ng/mL

**Q.** What about the concentration at 3 h [1] of the same compound?
**A.** 1130 ng/mL

**Q.** What about the concentration at 4 h [1] of the same compound?
**A.** 4350 ng/mL

**Q.** What about the concentration at 6 h [1] of the same compound?
**A.** 1010 ng/mL

**Q.** And the concentration at 8 h [2]?
**A.** 582 ng/mL

**Q.** And the concentration at 10 h [2]?
**A.** 293 ng/mL

**Q.** What about the concentration at 24 h [2] of the same compound?
**A.** 136 ng/mL

**Q.** What about the concentration at 0.25 h (oral, 80 mg/kg, 80 mg/kg i.g. single, 0.25 h, read-out: plasma drug concentration, mean (n=6)) of the same compound?
**A.** 6130 ng/mL

**Q.** What about the concentration at 0.5 h [3] of the same compound?
**A.** 9320 ng/mL

**Q.** And the concentration at 0.5 h [4]?
**A.** 11300 ng/mL

**Q.** What about the concentration at 1 h [4] of the same compound?
**A.** 12900 ng/mL

**Q.** What about the concentration at 2 h [4] of the same compound?
**A.** 8930 ng/mL

**Q.** And the concentration at 3 h [4]?
**A.** 4670 ng/mL

**Q.** What about the concentration at 4 h [4] of the same compound?
**A.** 8950 ng/mL

**Q.** What about the concentration at 6 h [4] of the same compound?
**A.** 2260 ng/mL

**Q.** What about the concentration at 8 h [4] of the same compound?
**A.** 1200 ng/mL

**Q.** And the concentration at 10 h [4]?
**A.** 1700 ng/mL

**Q.** What about the concentration at 24 h [3] of the same compound?
**A.** 96 ng/mL

**Q.** What about the AUC(0-inf) [5] of the same compound?
**A.** 24400 ng·h/mL

**Q.** And the Cmax at 7 days [5]?
**A.** 10700 ± 811 ng/mL

**Q.** What about the half-life at 7 days [5] of the same compound?
**A.** 1.01 h

**Q.** What about the AUC(0-t) (po, 20 mg/kg, 20 mg/kg i.g. bid, 7 days (7th-day steady state), all mice (Totol, 3 male + 3 female), read-out: AUC0-t) of the same compound?
**A.** 24200 ng·h/mL

**Q.** What about the Tmax (po, 20 mg/kg, 20 mg/kg i.g. bid, 7 days (7th-day steady state), all mice (Totol, 3 male + 3 female), read-out: Tmax) of the same compound?
**A.** 0.833 ± 0.258 h

**Q.** What about the bioavailability (po, 20 mg/kg, 20 mg/kg i.g. single dose vs 5 mg/kg i.v., one value for the dose, read-out: F (absolute bioavailability)) of the same compound?
**A.** 57.7%

**Q.** And the AUC(0-inf) (po, 20 mg/kg, 20 mg/kg i.g. single dose, all mice (Totol, 3 male + 3 female))?
**A.** 16300 ng·h/mL

**Q.** What about the AUC(0-t) (po, 20 mg/kg, 20 mg/kg i.g. single dose, all mice (Totol, 3 male + 3 female), read-out: AUC0-t) of the same compound?
**A.** 15600 ng·h/mL

**Q.** What about the Cmax (po, 20 mg/kg, 20 mg/kg i.g. single dose, all mice (Totol, 3 male + 3 female), read-out: Cmax) of the same compound?
**A.** 9610 ± 3110 ng/mL

**Q.** What about the Tmax (po, 20 mg/kg, 20 mg/kg i.g. single dose, all mice (Totol, 3 male + 3 female), read-out: Tmax) of the same compound?
**A.** 0.458 ± 0.292 h

**Q.** What about the half-life (po, 20 mg/kg, 20 mg/kg i.g. single dose, all mice (Totol, 3 male + 3 female), read-out: t1/2 (converted)) of the same compound?
**A.** 0.699 h

**Q.** What about the bioavailability (po, 40 mg/kg, 40 mg/kg i.g. single dose vs 5 mg/kg i.v., one value for the dose, read-out: F (absolute bioavailability)) of the same compound?
**A.** 40.2%

**Q.** And the AUC(0-t) (po, 40 mg/kg, 40 mg/kg i.g. single dose, all mice (Totol, 3 male + 3 female), read-out: AUC0-t)?
**A.** 21700 ng·h/mL

**Q.** What about the Cmax (po, 40 mg/kg, 40 mg/kg i.g. single dose, all mice (Totol, 3 male + 3 female), read-out: Cmax) of the same compound?
**A.** 12400 ± 4120 ng/mL

**Q.** And the Tmax (po, 40 mg/kg, 40 mg/kg i.g. single dose, all mice (Totol, 3 male + 3 female), read-out: Tmax)?
**A.** 1.58 ± 1.28 h

**Q.** What about the bioavailability (po, 80 mg/kg, 80 mg/kg i.g. single dose vs 5 mg/kg i.v., one value for the dose, read-out: F (absolute bioavailability)) of the same compound?
**A.** 64.7%

**Q.** What about the AUC(0-inf) (po, 80 mg/kg, 80 mg/kg i.g. single dose, all mice (Totol, 3 male + 3 female)) of the same compound?
**A.** 70900 ng·h/mL

**Q.** And the AUC(0-t) (po, 80 mg/kg, 80 mg/kg i.g. single dose, all mice (Totol, 3 male + 3 female), read-out: AUC0-t)?
**A.** 70000 ng·h/mL

**Q.** What about the Cmax (po, 80 mg/kg, 80 mg/kg i.g. single dose, all mice (Totol, 3 male + 3 female), read-out: Cmax) of the same compound?
**A.** 17100 ± 6290 ng/mL

**Q.** What about the Tmax (po, 80 mg/kg, 80 mg/kg i.g. single dose, all mice (Totol, 3 male + 3 female), read-out: Tmax) of the same compound?
**A.** 1.5 ± 1.34 h

**Q.** What about the half-life (po, 80 mg/kg, 80 mg/kg i.g. single dose, all mice (Totol, 3 male + 3 female), read-out: t1/2 (converted)) of the same compound?
**A.** 2.4 h

**Q.** And the bioavailability (po, 80 mg/kg, single oral doses 20, 40, 80 mg/kg, read-out: absolute (oral) bioavailability, mean over single oral doses)?
**A.** 54.2%

**Q.** What about the bioavailability (po, 80 mg/kg, single oral doses 20, 40, 80 mg/kg, read-out: absolute (oral) bioavailability, range over single oral doses) of the same compound?
**A.** 40.2 to 64.7%

**Q.** What about the AUC(0-t) (po, after oral dosing from 20 to 80 mg/kg, mouse plasma, read-out: AUC0-t, range over oral doses) of the same compound?
**A.** 15600 to 70000 ng·h/mL

**Q.** What about the Cmax (po, after oral dosing from 20 to 80 mg/kg, mouse plasma, read-out: Cmax, range over oral doses) of the same compound?
**A.** 8750 to 12900 ng/mL

**Q.** And the Tmax (po, after oral gavage, mouse plasma, read-out: mean Tmax, range over oral doses)?
**A.** 0.458 to 1.58 h

**Q.** And the Tmax (po, oral 20 to 80 mg/kg pooled, mouse plasma, n=6, read-out: Tmax, post-oral)?
**A.** 0.79 ± 0.36 h

**Q.** What about the half-life (po, oral 20 to 80 mg/kg pooled, mouse plasma, n=6, read-out: t1/2, post-oral (converted)) of the same compound?
**A.** 1.59 ± 0.853 h

**Q.** What about the MRT inf (po, 20 mg/kg i.g. single dose, all mice (Totol, 3 male + 3 female), read-out: MRT0-∞) of the same compound?
**A.** 1.64 h
